The source of these data is patent US11357760B2, “Method of treating liver fibrosis” (ChemoCentryx, Inc., priority 2016, dated 2022).

In one data set the test system is MCD-induced NASH model. In words: Methionine-choline deficient (MCD) induced NASH model. Type of data set: in vivo, mice C57Bl/6. Particulars: Compound 1 subcutaneously, CVC orally; for serum ALT levels: FIG. 5; for trough drug level: 30 mg/kg. As for the experimental part: (§1) Compound 1 was administered subcutaneously to maintain high systemic levels. […] Formalin-fixed, paraffin-embedded liver sections were stained separately with hematoxylin & eosin (H&E) and for Sirius red Picrosirius red (#365548, Sigma) and evaluated for severity of liver fibrosis. All pathologic evaluations were made by a pathologist on a random and blinded basis. Collagen surface density was quantified using Image J (NIH). Two Sirius red-stained slides per animal were taken at different depth, with 18 images taken randomly per slide for a total of 36 images per animal for collagen quantification. Liver enzymes were assayed by Antech GLP (Morrisville, N.C.). Insulin was measured with Ultrasensitive. Mouse Insulin ELISA kit (Crystal Chem Inc: #90080); Blood glucose and insulin levels were determined after an overnight fast (14-16 h). Insulin sensitivity was determined by the homeostatic model assessment of insulin resistance (HOMA-IR). Lipids were measured in the serum and liver with a Triglyceride Colorimetric Assay kit (Cayman Chemical Company: #10010303), a Free Fatty Acid Quantification kit, (Abcam, ab65341) and Cholesterol Quantification kit (Abcam, ab65359).

For the next data set, the target named is CCR5 (Homo sapiens, UniProt P51681). Particulars: summary of Table 1.
Sequence of CCR5 (P51681 whole entry, species assumed): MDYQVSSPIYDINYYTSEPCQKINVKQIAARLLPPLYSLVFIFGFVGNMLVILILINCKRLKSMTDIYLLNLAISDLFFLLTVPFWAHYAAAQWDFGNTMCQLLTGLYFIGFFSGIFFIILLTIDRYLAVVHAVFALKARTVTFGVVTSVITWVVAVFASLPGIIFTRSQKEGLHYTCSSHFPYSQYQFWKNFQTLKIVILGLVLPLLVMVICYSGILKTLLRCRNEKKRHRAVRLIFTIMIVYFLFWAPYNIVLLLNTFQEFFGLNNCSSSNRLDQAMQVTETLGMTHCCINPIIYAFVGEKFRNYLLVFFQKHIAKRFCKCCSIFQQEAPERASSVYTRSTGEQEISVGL
For data set [1], the system named is HFD/fructose-induced NASH model. Description: High fat diet (HFD)/fructose-induced NASH model. Type of data set: in vivo, mice C57Bl/6. Particulars: 30 mg/kg subcutaneously once per day for 8 weeks.
Excerpt: as §1, with “Male wild-type (WT) mice C57Bl/6 were obtained from Jackson Laboratory and fed either with high-fat diet (D12492, 60 Cal % fat, Research Diets, New Brunswick, N.J.) with 30% fructose in the drink water or a lean control diet (D12450B, 10 Cal % fat, Research Diets) at 6-8 week of age and maintained on the respective diet for the duration of the study (16-32 weeks). […] Sirius red-staining” for “Compound 1”, “used” for “administered subcutaneously”, “evaluate the severity of liver fibrosis.” for “maintain high systemic levels.”

Protocol for CCR5: A conventional migration assay was used to determine the efficacy of potential receptor antagonists in blocking migration mediated through MIP1b. This assay was routinely performed using the ChemoTX® (Neuroprobe) microchamber system with a 5-mum pore-sized polycarbonate membrane. CCR5 expressing cells (IL-2 Lymphocytes or L1.2CCR5 cells) were harvested by centrifugation of cell suspension at 1000 RPM on a GS-6R Beckman centrifuge. […] An equal volume of cells and compounds were mixed and incubated at room temperature for 15 minutes. Afterwards, 20 μl of the mixture was transferred onto the porous membrane of a migration microchamber, with 29 μl of MIP1b ligand (0.1 nM MIP1b protein) placed at the lower chamber. Following incubation at 37 degrees centigrade (90-minute), the assay was terminated by removing the cell drops from atop the filter. To quantify cells migrated across the membrane, 5 mul_ of 7× CyQUANT® (ThermoFisher) solution was added to each well in the lower chamber, and the fluorescence signal measured on a Spectrafluor Plus fluorescence plate reader (TECAN, Durham, N.C.). The degree of inhibition was determined by comparing migration signals between compound-treated and untreated cells. IC50 calculation was further performed by non-linear squares regression analysis using Graphpad Prism (Graphpad Software, San Diego, Calif.).

As to `CCCCOCCOc1ccc(-c2ccc3c(c2)/C=C(/C(=O)Nc2ccc([S@@+]([O-])Cc4cncn4CCC)cc2)CCCN3CC(C)C)cc1` [CVC, cenicriviroc, reference compound], the “serum ALT levels” value with MCD-induced NASH model (30 mg/kg for 8 weeks) is “does not”. For the same molecule, the trough drug level entry in the data set with MCD-induced NASH model is given as “over IC50”. In addition, on CCR5, the “CCR5 inhibition (in words)” value is “potent CCR5 inhibitor”.
Turning to `Cc1cnc(C(=O)c2ccnc3[nH]ccc23)c(NS(=O)(=O)c2ccc(Cl)c(C(F)(F)F)c2)c1` [Compound 1], the “change in body weight compared to vehicle” value in data set [1] (FIG. 1) is given as “did not change”. Further, in data set [1] (FIG. 2), the “serum ALT levels” value is given as “reduced” and the “serum AST levels” value is “reduced”. In addition, in data set [1] (FIG. 4), the “percentage of Sirius red staining (liver fibrosis) compared to vehicle” value is “reduced”. Besides, the “serum ALT levels” value with MCD-induced NASH model (30 mg/kg for 8 weeks) was “significantly reduces”. In the data set with MCD-induced NASH model (30 mg/kg for 8 weeks, FIG. 6), the “Sirius red-positive staining (liver fibrosis)” value is on record as “reduces”. Moreover, in the data set on MCD-induced NASH model, the trough drug level result is reported as “over IC50”.
